Data: publication PMC5150241, “Antimicrobial mechanism of theaflavins: They target 1-deoxy-D-xylulose 5-phosphate reductoisomerase, the key enzyme of the MEP terpenoid biosynthetic pathway” (Scientific Reports, 2016)
Like-named read-outs stand apart in the source and are kept apart here.

Assays:
E. coli DXR [1] = biological target: T1, E. coli DXR (Escherichia coli, UniProt P45568); assay: DXR inhibition assay, pre-column derivatization HPLC method; assay type: biochemical; conditions: for Inhibition (%) Triton, lower concentration / Inhibition (%) Triton, higher concentration: 0.01% Triton X-100; for Inhibition (%) Triton, lower concentration / Inhibition (%) No Triton, lower concentration: conc: TF 150, TF3G 30, TF3′G 20, TF3,3′G 15, baicalein 50 μM; for Inhibition (%) Triton, higher concentration / Inhibition (%) No Triton, higher concentration: conc: TF 250, TF3G 50, TF3′G 40, TF3,3′G 30, baicalein 100 μM; for IC50: 2 mM VC, 0.5 mM NADPH, 1 mM DXP, 37 °C, 30 min, read-out: IC50 against DXR; for Inhibition (%) No Triton, lower concentration / Inhibition (%) No Triton, higher concentration: no Triton X-100
T1 construct: made in house
Procedure: Then, we evaluated the DXR inhibitory activity of all four theaflavins at a final concentration of approximately 150 μM, employing 2% DMSO as a co-solvent and VC as a protective agent. […] Encouraged by these experiments, we further determined the DXR inhibitory effects of the theaflavins at different concentrations.
We therefore determined the DXR inhibitory activity of the theaflavins using 0.01% Triton X-100 as a surfactant to verify whether the theaflavins were aggregating inhibitors of DXR. Exactly the same procedure as described in the experimental part was followed to carry out the measurements. […] Then, we set two distinct concentrations for each of the theaflavins to evaluate its inhibition against DXR, one was close to its IC50 value and the other was about twice of it.
The inhibitory activity of the theaflavins and baicalein against E. coli DXR was determined using the pre-column derivatization HPLC method published by this group with minor modifications[29]. The assay mixture consists of 50 mM Tris-HCl (pH 7.4), 5 mM MgCl2, 2 mM VC, 0.5 mM NADPH, 2% (W/V) DMSO or 0.01% Triton X-100, and 4 μg/mL DXR in a final volume of 100 μL. The theaflavin compounds or baicalein were added to the mixtures separately before the addition of DXP (final conc. 1 mM) to start the reaction. […] The reaction mixture was incubated at 37 °C for 30 min before the DXR was inactivated by boiling for 3 minutes. Subsequently, 10 μL AP buffer (1 M Tris-HCl, 1 M NaCl2 50 mM MgCl2, pH 9.5) and 2 U AP were added, and the mixture was incubated at 37 °C for 120 min. 10 μL DNPH (120 mM in 30% perchloric acid, V/V) and 280 μL methanol were supplemented. After incubated at 37 °C for another 45 min, the mixture was centrifuged at 6000 rpm for 3 min and the supernatant was used for HPLC analysis on the Agilent 1200 HPLC system. HPLC conditions: Column, Shim-pack VP-ODS column (250 × 4.6 mm, 4.6 μm). Injection volume: 60 μL. Gradient: 0 min, 40% acetonitrile; 17 min, 80% acetonitrile; 18–20 min, 40% acetonitrile. Detection wavelength: 360 nm. Flow rate: 0.7 mL/min. Column temperature: 30 °C.

[2] = Particle size analysis by dynamic light scattering (DLS); assay type: physicochemical; conditions: 50 mM Tris-HCl pH 7.4, 2 mM VC, 2% DMSO; for DLS Count Rate, with 4 μg/mL DXR / DLS Count Rate, without DXR: conc: TF 500, TF3G 100, TF3′G 100, TF3,3′G 70, baicalein 200 μM
Procedure: DLS is a widely utilized technique in materials science to measure particle sizes in solutions[20][21]. […] Baicalein was referenced as a positive control owing to the same reason as mentioned above. The particle size evaluation was performed by a DLS analyzer and the results display that except for baicalein, the theaflavins produce no detectable particles.
The particle size of the theaflavin compounds and baicalein in Tris-HCl buffer (50 mM, pH 7.4) containing 2 mM VC and 2.0% DMSO (V/V) was measured in the absence and presence of DXR (final concentration: 4 μg/mL) on a DLS analyzer (NICOMP-380, Particle Sizing Systems, Inc., Santa Barbara, Calif., USA). The detector time was set to 10 min. […] A solution of 2.0% aqueous DMSO was used as a reference.

[3] = set-up: method as in earlier work; conditions: cited from earlier work
Plasmodium falciparum = conditions: malaria caused by Plasmodium falciparum; cited from earlier work
[4] = Stability of the theaflavins under the DXR assay conditions (HPLC); assay type: physicochemical; conditions: 100 μM before incubation, 50 mM Tris-HCl pH 7.4, 37 °C, 35 min; for Concentration after incubation in the absence of 2 mM VC: no VC
Procedure: The theaflavins are unstable compounds, especially under a basic condition. Because the DXR inhibition assay needs to be carried out in 50 mM Tris-HCl buffer at pH 7.4 and incubated at 37 °C for 30 min, we have to test whether the theaflavins can survive the assay condition, although it is almost neutral. The compounds were actually incubated at 37 °C for 35 min, 5 min longer than that of the real DXR assay. The results, as depicted in Table 1, indicate that almost half of the theaflavins decomposed after incubation. That is to say that these compounds are unstable even under the weak basic condition. […] Thus VC (2 mM) was used to protect the theaflavins in the following assays.
Stability of the theaflavins in Tris-HCl buffer was evaluated using an Agilent 1200 HPLC equipped with a DAD detector. The theaflavins were separately diluted into 50 mM Tris-HCl buffer (pH 7.4) containing 5 mM MgCl2 and 2% (W/V) DMSO to a final concentration of 100 μM in the absence and presence of 2 mM VC. The mixtures were subsequently incubated at 37 °C for 35 min before they were centrifuged at 6000 rpm for 3 min and analyzed. HPLC conditions: Column, Shim-pack VP-ODS column (250 × 4.6 mm, 4.6 μm). Detection wavelength: 280 nm. Injection volume: 20 μL. The mobile phase consists of 60% solvent A [2% acetic acid in water (v/v)] and 40% solvent B (acetonitrile). Flow rate: 0.7 mL/min. Column temperature: 25 °C. […]
1. Stability of the theaflavins under the DXR assay conditions
In order to evaluate the stability of the theaflavins under the DXR assay conditions, each compound was diluted into 50 mM Tris-HCl buffer (pH 7.4) and incubated at 37 °C for 35 min in the absence and presence of 2 mM VC before they were determined by HPLC. The HPLC profiles were listed in Fig. S1. From the figure we are able to see that in the presence of 2 mM VC, the four theaflavin compounds are stable because the peak area of each compound remains almost unchanged after incubation (B). But they are unstable in the absence of VC because the peak areas of all four […]
(1 picture or pasted object on this page, not shown here)
Figure S1. The stabilitiy of the theaflavin compounds under DXR assay conditions. A. Mixtures of VC and individual theaflavins in 50 mM Tris-HCl buffer (pH 7.4) before incubation; B. Mixtures of VC and individual theaflavins in same buffer after incubated at 37 °C for 35 min; C. Individual theaflavins in same buffer after incubated at 37 °C for 35 min. In A and B. Line 1, TF (100 μM) plus VC (2 mM); Line 2, TF3G (100μM) plus VC (2 mM); Line 3, TF3’G (100μM) plus VC (2 mM); Line 4, TF3,3’G (100μM) plus VC (2 mM). In C. Line 1, TF (100 μM); Line 2, TF3G (100μM); Line 3, TF3’G (100μM); Line 4, TF3,3’G (100μM). HPLC conditions:
Column, Shim-pack VP-ODS column (250 × 4.6 mm, 4.6μm). Detection wavelength: 280 nm. The mobile phase consisted of 60% solvent A [2% acetic acid in water (v/v)] and 40% solvent B (acetonitrile). Flow rate:
0.7 mL/min. Column temperature: 25 °C. […]

E. coli DXR [5] = biological target: T1, E. coli DXR; assay: Inhibition kinetics against DXR (Lineweaver-Burk plots); assay type: biochemical; conditions: for Ki: 2 μg/mL DXR; for Kinetics (DXP): inhibition mode with respect to DXP; for Kinetics (NADPH): inhibition mode with respect to NADPH
Procedure: Lineweaver-Burk (LB) graphical charts were obtained by plotting the reciprocal of the reaction velocity against the reciprocal of the concentration of DXP/NADPH.
For A, the mixtures contained 1 mM DXP and NADPH (final conc. 0.05 to 0.275 mM); For B, the mixtures contained 0.5 mM NADPH and DXP (final conc. 0.075 to 0.3375 mM). The incubation was performed for 10 min at 37 °C before the reaction mixtures were hydrolyzed with AP, derivatized with DNPH, and analyzed using the HPLC method.
Lineweaver–Burk plots of DXR with respect to NADPH in the absence and presence of TF (A-1),
Assay mixtures comprised 50 mM tris-HCl (pH 7.4), 5 mM
MgCl2, 2 mM VC, the theaflavins (TF: 0, 2, 10, 20 μM; the other three compounds: 0, 1, 4, or 8 μM), 1 mM DXP and 2 μg/mL DXR in a final volume of 100 μL. Then, NADPH (final conc. 0.05 to 0.275 mM) was added, and incubation was performed for 10 min at 37 °C before the reaction mixtures were hydrolyzed with AP, derivatized with DNPH, and analyzed using the HPLC method. (A-1) DXR inhibition kinetics of TF; (A-2) DXR inhibition kinetics of TF3G; (A-3) DXR inhibition kinetics of TF3’G; (A-4) DXR inhibition kinetics of
Lineweaver–Burk plots of DXR with respect to DXP in the absence and presence of TF (B-1),
MgCl2, 2 mM VC, the theaflavins (TF: 0, 5, 10, 20 μM; the other three compounds: 0, 1, 4, or 8 μM), 0.5 mM NADPH, and 2 μg/mL. DXR in a final volume of 100 μL. Then, DXP (final conc. 0.075 to 0.3375 mM) was added, and incubation proceeded for 10 min at 37 °C before the reaction mixtures were hydrolyzed with AP, derivatized with DNPH, and analyzed using the HPLC method. (B-1) DXR inhibition kinetics of TF; (B-2) DXR inhibition kinetics of TF3G; (B-3) DXR inhibition kinetics of TF3’G; (B-4) DXR inhibition kinetics of

Calf intestine AP = biological target: T2, Calf intestine AP (Bos taurus, UniProt P19111); assay: Alkaline phosphatase (AP) inhibition assay, HPLC method; assay type: biochemical; conditions: 2 mM
T2 construct: purchased Takara (Dalian, China)
Procedure: The other factor that could influence the determination of inhibitory activity of the theaflavins against DXR would be the AP because we must use it to dephosphorylate DXP before DNPH derivatization. We thus measured whether VC and the theaflavins might display any inhibition against this enzyme. We find that VC has no effect on the activity of AP at 2 mM and the four theaflavins also have no inhibition against AP at all (Fig. 4), even at final concentrations as high as 500 μM.
Figure 4 Determination of inhibition of VC and the theaflavins against AP. The reaction mixtures comprise 10 μL AP buffer and 2 U AP in a final volume of 100 μL, DXP was added (final conc. 1 mM) to start the reaction. The reaction mixtures were incubated at 37 °C for 120 min and subsequently derivatized with DNPH and analyzed with the HPLC method. For VC assay, 2 mM VC was added before the addition of DXP. For assays of the theaflavins, the compounds were added separately before the addition of DXP (two concentrations, 20 and 500 μM for each compound were applied).
The HPLC method described above was also used to determine the inhibitory activity of the theaflavins against AP. The reaction mixture comprises 2 mM VC, 10 μL AP buffer and 2 U AP in a final volume of 100 μL. […] Then, the reaction mixture was derivatized with DNPH and analyzed with the HPLC method.

[6] = DXP as varied substrate, 0.5 mM NADPH, read-out: Ki (DXP)
[7] = NADPH as varied substrate, 1 mM DXP, read-out: Ki (NADPH)

T1 sequence (P45568 whole entry): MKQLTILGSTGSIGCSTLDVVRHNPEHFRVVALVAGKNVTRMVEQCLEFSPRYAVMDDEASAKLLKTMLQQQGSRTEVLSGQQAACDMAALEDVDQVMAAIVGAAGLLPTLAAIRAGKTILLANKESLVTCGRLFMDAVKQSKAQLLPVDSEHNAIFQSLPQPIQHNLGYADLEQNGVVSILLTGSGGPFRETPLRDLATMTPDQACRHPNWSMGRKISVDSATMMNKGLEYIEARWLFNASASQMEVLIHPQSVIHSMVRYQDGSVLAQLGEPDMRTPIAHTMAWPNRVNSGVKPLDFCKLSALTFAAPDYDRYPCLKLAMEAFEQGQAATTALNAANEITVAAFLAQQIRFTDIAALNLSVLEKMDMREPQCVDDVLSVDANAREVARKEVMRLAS
T2 sequence (P19111 20-533): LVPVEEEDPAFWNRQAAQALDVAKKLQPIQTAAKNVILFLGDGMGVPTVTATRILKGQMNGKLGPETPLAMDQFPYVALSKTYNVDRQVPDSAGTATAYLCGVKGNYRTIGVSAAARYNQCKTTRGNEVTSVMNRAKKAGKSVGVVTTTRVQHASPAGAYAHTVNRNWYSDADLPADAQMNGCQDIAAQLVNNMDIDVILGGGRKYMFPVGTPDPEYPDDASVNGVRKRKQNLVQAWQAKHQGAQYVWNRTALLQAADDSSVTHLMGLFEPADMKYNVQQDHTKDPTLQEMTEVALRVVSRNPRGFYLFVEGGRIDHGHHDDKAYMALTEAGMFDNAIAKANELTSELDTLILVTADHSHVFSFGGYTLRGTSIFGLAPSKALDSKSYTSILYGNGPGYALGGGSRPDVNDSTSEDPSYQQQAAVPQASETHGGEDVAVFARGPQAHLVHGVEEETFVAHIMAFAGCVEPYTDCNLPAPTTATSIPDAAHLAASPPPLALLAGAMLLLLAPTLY

Compound | DLS Count Rate, with 4 μg/mL DXR ([2]; 4 μg/mL DXR) [KHz] | DLS Count Rate, without DXR [2] [KHz] | Concentration after incubation in the presence of 2 mM VC [4] [µM] | Concentration after incubation in the absence of 2 mM VC [4] [µM] | Inhibition (%) Triton, lower concentration (E. coli DXR [1]) [%] | Inhibition (%) Triton, higher concentration (E. coli DXR [1]) [%] | IC50 (E. coli DXR [1]; 2% DMSO) [µM] | Inhibition (%) No Triton, lower concentration (E. coli DXR [1]) [%] | Inhibition (%) No Triton, higher concentration (E. coli DXR [1]) [%] | Ki (E. coli DXR [5]; [6]) [µM] | Ki (E. coli DXR [5]; [7]) [µM] | Kinetics (DXP) (E. coli DXR [5]) | Kinetics (NADPH) (E. coli DXR [5]) | other results
O=c1cc(-c2ccccc2)oc2cc(O)c(O)c(O)c12 [Baicalein, baicalein, reference compound] | 296 ± 19.7 | 2.6 ± 0.5 | – | – | – | – | – | – | – | – | – | – | – | inhibition at 100 µM (E. coli DXR [1]; read-out: Inhibition (%) No Triton, higher concentration): 63.5 ± 2.9%; inhibition at 50 µM (E. coli DXR [1]; read-out: Inhibition (%) No Triton, lower concentration): 37.6 ± 4.7%; inhibition at 100 µM (E. coli DXR [1]; read-out: Inhibition (%) Triton, higher concentration): 6.5 ± 4.6%; inhibition at 50 µM (E. coli DXR [1]; read-out: Inhibition (%) Triton, lower concentration): 5.1 ± 3.9%; DLS Size, with 4 μg/mL DXR ([2]; 4 μg/mL DXR, baicalein 200 μM): 429.2 ± 84.7 nm
O=CN(O)CCCP(=O)(O)O [Fosmidomycin, fosmidomycin] | – | – | – | – | – | – | – | – | – | – | – | – | – | Inhibition of DXR activity (positive control) (E. coli DXR [1]; 1.0 μM): complete inhibition; Bioavailability [3]: poor; Plasma half-life [3]: ~ 1 h; Efficacy in treating malaria (clinical data) (Plasmodium falciparum): somewhat effective
O=C(O[C@@H]1Cc2c(O)cc(O)cc2O[C@@H]1c1cc(O)c(=O)c2c(O)c(O)cc([C@H]3Oc4cc(O)cc(O)c4C[C@H]3OC(=O)c3cc(O)c(O)c(O)c3)c2c1)c1cc(O)c(O)c(O)c1 [TF3,3′G, theaflavin-3,3′-digallate] | 4.8 ± 0.4 | 2.2 ± 0.4 | 96.72 ± 2.78 | 55.26 ± 4.32 | – | – | – | – | – | – | – | – | – | –
O=C(O[C@@H]1Cc2c(O)cc(O)cc2O[C@@H]1c1cc(O)c(O)c2c(=O)c(O)cc([C@H]3Oc4cc(O)cc(O)c4C[C@H]3O)cc12)c1cc(O)c(O)c(O)c1 [TF3G] | 4.6 ± 0.5 | 2.6 ± 0.5 | 98.15 ± 2.86 | 60.88 ± 2.77 | 52.7 ± 2.4 | 67.9 ± 3.4 | 29.2 ± 2.6 | 52.6 ± 3.2 | 69.6 ± 2.7 | 30.2 ± 2.6 | 24.7 ± 3.2 | Noncompetitive | Uncompetitive | –
O=C(O[C@@H]1Cc2c(O)cc(O)cc2O[C@@H]1c1cc(O)c(=O)c2c(O)c(O)cc([C@H]3Oc4cc(O)cc(O)c4C[C@H]3O)c2c1)c1cc(O)c(O)c(O)c1 [TF3′G, theaflavin-3′-gallate] | 5.2 ± 0.4 | 1.4 ± 0.5 | 98.08 ± 3.02 | 61.17 ± 4.29 | 42.5 ± 3.3 | 70.7 ± 3.3 | 23.7 ± 2.9 | 41.3 ± 2.9 | 70.3 ± 3.4 | 22.2 ± 3.1 | 22.4 ± 2.1 | Noncompetitive | Uncompetitive | –
O=c1c(O)cc([C@H]2Oc3cc(O)cc(O)c3C[C@H]2O)cc2c([C@H]3Oc4cc(O)cc(O)c4C[C@H]3O)cc(O)c(O)c12 [TF, theaflavin] | 5.8 ± 0.4 | 2.2 ± 0.4 | 98.97 ± 3.27 | 63.01 ± 3.73 | 43.9 ± 3.6 | 62.2 ± 2.9 | 162 ± 3.6 | 45.3 ± 3.4 | 63.1 ± 2.4 | 107 ± 3.9 | 83.1 ± 4.3 | Noncompetitive | Uncompetitive | Inhibition against DXR at a single concentration (E. coli DXR [1]; approximately 150 μM, 2% DMSO, VC): approximately 40%
O=C1O[C@H]([C@@H](O)CO)C(O)=C1O [VC, ascorbic acid] | – | – | – | – | – | – | – | – | – | – | – | – | – | Effect on the activity of DXR (E. coli DXR [1]; 2 mM): no effect; Effect on the activity of AP (Calf intestine AP): no effect
Triton X-100 | – | – | – | – | – | – | – | – | – | – | – | – | – | Effect on the activity of DXR (E. coli DXR [1]; 0.1%): no effect
